Patent EP0998939A1, “Chalcone plant extracts for use in therapy” (THE SCHOOL OF PHARMACY, UNIVERSITY OF LONDON, priority 1998, dated 2000)
≈ marks a conversion by molar mass, not a printed value.

Assays:
[1] = system: swiss 3T3 mouse fibroblast cells; assay: Cell culture 3[H] thymidine assay, Example 6.2 inhibition of TPA induced proliferation (compound added together with TPA); format: cell-based; settings: with 0.5µM TPA
Procedure: (§1) Cells used were swiss 3T3 mouse fibroblast cells • 1. 6 x 24 well plates were required for each experiment. • 2. Cells were removed from the standard tissue culture flask using a 1% solution of EDTA and resuspended in 10 ml of media and pipetted off into a falcon tube. • 3. The cells were then spun for 5 minutes at about 2,000rpm. • 4. The existing media was removed, and the cells again resuspended in 10ml of 10% foetal calf serum (FCS) and vortexed. • 5. The 10ml of suspension was then added to 140ml of media and mixed in a sterile jar. 1ml of the media cell suspension was then placed into each well and the plates incubated until confluent, three days .
(§2) • 1. [PCl]Cells were dosed with the test compounds (as specified below) 2 days prior to the addition of 3 [H]thymidine. The cells could only be dosed with a 0.5% solution, 5µl test solution in 1ml cellsuspension i.e. 5µl in 1ml, (TPA - 0.5µM). • 2. 0.5µl of 3[H] thymidine was added per well, therefore 72µl was added to 144µl of media (1%F.C.S.) to dose the corresponding six plates. • 3. 100µl of the media was taken to measure the measure the radioactive dose […], and added to 4ml of scintillation fluid. • 4. The radioactive media was then transferred to sterile specimen tubes and dosed with the test compounds before adding to the cells. • 5. After four hours ofbeing pulsed with radiolabelled thymidine (0.5µCi/ml) the media was removed and washed down the sink. • 6. The cells were washed twice with ice cold phosphate buffered saline (PBS), 0.5ml per well, and incubated for 30 min using ice cold 5% trichloroacetic acid (TCA) ( 1ml) per well at room temperature. • 8. The TCA was then removed and another 1ml of 5% TCA was added for 5 minutes. After the TCA was removed and 0.3NaOH and 0.1% sodium dodecyl sulphate added to each well for 30 minutes (1ml/well). • 9. The contents of each well was added to scintillation vials containing 4ml of scintillation fluid and each sample counted for four minutes using a scintillation counter. Three different assays were carried out using this protocol; • 6.1. Cytotoxicity testing of the compounds. After 48 hours of incubation and the cells were confluent a predetermined quantity of the test compounds was added to the cells. • 6.2. Inhibition of TPA induced proliferation. After 48 hours a preditermined quantity concentration of the test compounds was added to the cells as well as 0.5um of TPA. […] Inhibition of TPA induced proliferation. After 48 hours a predetermined quantity concentration of the test compounds was added to the cells for 24 hours, at 72 hours the media was changed again to contain both test compound and 0.5µM of the TPA. The objective of this experiment was to observe whether the prior incubation with the test compound had any effect on the TPA induced proliferation of the cells.

[2] = system: swiss 3T3 mouse fibroblast cells; assay: Cell culture 3[H] thymidine assay, Example 6.1 cytotoxicity testing (normal cell growth); format: cell-based; settings: for Percentage Inhibition of 3T3 Swiss Fibroblast Growth, Example 6.1: cytotoxicity, no TPA
Procedure: as §1, §2

[3] = system: swiss 3T3 mouse fibroblast cells; assay: Cell culture 3[H] thymidine assay, Example 6.3 inhibition of TPA induced proliferation (24 hours prior incubation with compound); format: cell-based; settings: compound 24 hours before compound + 0.5µM TPA
Procedure: as §1, §2

Blood platelets = assay: Inhibition of blood platelet aggregation (TPA or ADP induced) in platelet rich plasma; format: cell-based, human; settings: for Percentage Inhibition of ADP Induced Aggregation: ADP 6.4 µg; for Percentage Inhibition of TPA Induced Aggregation: TPA 0.5µg
Procedure: Blood platelets release inflammatory mediators in response to an external stimulus, which affect the proliferation of the cells, which is an important part of the disease psoriasis. • 1. Male human blood was collected via venipucture of the forearm directly in to anticoagulant buffer, from healthy donors who had denied any medication for two weeks, and centrifuged at 1000rpm for 20 minutes at room temperature. • 2. The supernatant was employed as platelet rich plasma (PRP). Platelet poor plasma (PPP) was obtained by centrifuging 1ml of PRP at 11,000 rpm for 10 minutes. • 3. Inhibition of platelet aggregation was tested by adding 2.5µl of a known concentration (containing 10µg or 50µg) of the test compound to a 500µl sample ofPRP for one minute. An aggregation agent was then added as a solution to the sample in a 2.5µl quantity (containing TPA 0.5,µg or ADP 6.4 µg). Aggregation was measured using a dual channel aggregometer . • 4. Aggregation was taken as the % change in light transmission compared to the maximum change produced by TPA or ADP plus the control solution. PRP was used as a standard for zero light transmission and PP for 100% light transmission.

Female CD1 mice = assay: Topical chemical erythema: inhibition of TPA induced erythema on the mouse ear; format: in vivo; settings: for ED50 (dose required to inhibit erythema in at least 50% of the animals): applied to the right ear in 5µl, 20 minutes prior to TPA (0.1µg/5µl); for inhibition of chemically induced (TPA) erythema on the mouse ear, result in words: comparison among extracts or among the three chalcones
Procedure: Ref. Williamson E.M. and Evans F. (1981), Inhibition of erythema induced by proinflammatory esters of 12-deoxyphorbol. Acta Pharmacol. Toxicol.,48, 47-52
Female CD1 mice, weighing approximately 20g were used. • 2. Test plant extracts as produced in Example 1 were applied externally to the right ear of each mouse, at predetermined concentrations in 5µl quantities, 20 minutes prior to the application of the irritant compound 12-O-tetradecanoylphorbal-13-acetate (TPA)(0.1µg/5µl). • 3. A […] response was indicated by redness and inflammation of the ear. • 4. Observations were recorded at 2,3,4,6,7, and 24 hours after the application of TPA. Maximum inflammation caused by TPA alone occurs at 6 hours after the application of TPA.
Erythema of the mouse ear is the simplest experiment to perform as mice have translucent ears in which reddening is easily visible. Quantification is subjective, however the erythema can be described as pronounced, slight or absent. • Isoliquiritigenin ED50 (dose required to inhibit erythema in at least 50% of the animals) 20-50,µg • Licochalcone B ED50 5-10µg • Echinatin ED50 5-10µg

platelet aggregation = settings: in rats, compared with aspirin; cited from earlier work
[4] = system: human polymorphonuclear neutrophils; settings: properties associated with inflammatory processes; cited from earlier work
male Wistar rats = assay: UV-B induced erythema (dermatitis) in rat, epidermal thickness and number of epidermal cell layers; format: in vivo; settings: five days; for No. of cells (epidermal proliferation as compared to the control, no treatment) / Thickness (epidermal thickening as compared to the control, no treatment): control = 100; for Percentage inhibition of epidermal proliferation (No. of cells, in brackets) / Percentage inhibition of epidermal thickening (in brackets): UV Exposure + Active Compound versus UV Exposure
Procedure: Rat UV-B induced dermatitis is characterised by a brownish red lesion with scab formation. Histologically, microvascular dilation, intraepidermal accumulation ofleukocytes and hyperproliferation of epidermal cells are all very similar to the symptoms of psoriasis in man (Nakaguma,H., Int. J.ofExp.Path, 76:65-73, 1995) • 1. Hair on the dorsal skin of male Wistar rats (180g) was clipped and shaved, whilst the rats were under anaesthesia, 24 hours prior to the experiment. • 2. The rats were covered by a black plastic sheeting, with two rectangular holes (about 1cm^2) cut out, thus allowing two exposure sites on the dorsal skin whilst protecting the rest of the animal. • 3. The rats were then exposed to UV-B light (302nm) at a distance of 10cm for six minutes and thirty seconds. The total W-B exposure was 2.4J/cm^2 as measured using a UV-X radiometer. • 4. The test compound was then placed onto one of the exposed areas and an unexposed area at a concentration of 100µg/5µl, in a suitable vehicle solution. • 5. Application of the test compound was repeated for five days. • 6. Histological post-mortem sections were taken on the fifth day, and stained using haematoxylin and eosin. The number ofepidermal cell layers and the epidermal thickness was counted and measured at random. Five animals were used per test group.

platelets = settings: cited from earlier work
[5] = Conc. 10µg test compound in 500µl PRP
[6] = Conc. 50µg test compound in 500µl PRP
[7] = Active Compound Only, unexposed area, 100µg/5µl
[8] = UV Exposure + Active Compound, 100µg/5µl topical

Row | Compound | Percentage Inhibition of 3T3 Swiss Fibroblast Growth, Example 6.2 ([1]; Concentration 1 µg) [%] | Percentage Inhibition of 3T3 Swiss Fibroblast Growth, Example 6.2 ([1]; Concentration 10 µg) [%] | Percentage Inhibition of 3T3 Swiss Fibroblast Growth, Example 6.2 ([1]; Concentration 20 µg) [%] | Percentage Inhibition of 3T3 Swiss Fibroblast Growth, Example 6.1 ([2]; Concentration 1 µg) [%] | Percentage Inhibition of 3T3 Swiss Fibroblast Growth, Example 6.1 ([2]; Concentration 10 µg) [%] | Percentage Inhibition of 3T3 Swiss Fibroblast Growth, Example 6.1 ([2]; Concentration 20 µg) [%] | Percentage Inhibition of 3T3 Swiss Fibroblast Growth, Example 6.3 ([3]; Concentration 1 µg) [%] | Percentage Inhibition of 3T3 Swiss Fibroblast Growth, Example 6.3 ([3]; Concentration 10 µg) [%] | Percentage Inhibition of 3T3 Swiss Fibroblast Growth, Example 6.3 ([3]; Concentration 20 µg) [%] | Percentage Inhibition of ADP Induced Aggregation (Blood platelets; [5]) [%] | Percentage Inhibition of ADP Induced Aggregation (Blood platelets; [6]) [%] | Percentage Inhibition of TPA Induced Aggregation (Blood platelets; [6]) [%] | ED50 (dose required to inhibit erythema in at least 50% of the animals) (Female CD1 mice) [µg] | inhibition of chemically induced (TPA) erythema on the mouse ear, result in words (Female CD1 mice) | Percentage Inhibition of 3T3 Swiss Fibroblast Growth, Example 6.2 ([1]; Concentration 0.01 µg) | Percentage Inhibition of 3T3 Swiss Fibroblast Growth, Example 6.2 ([1]; Concentration 0.1 µg) | Percentage Inhibition of 3T3 Swiss Fibroblast Growth, Example 6.1 ([2]; Concentration 0.01 µg) [%] | Percentage Inhibition of 3T3 Swiss Fibroblast Growth, Example 6.1 ([2]; Concentration 0.1 µg) [%] | Percentage Inhibition of 3T3 Swiss Fibroblast Growth, Example 6.3 ([3]; Concentration 0.01 µg) [%] | Percentage Inhibition of 3T3 Swiss Fibroblast Growth, Example 6.3 ([3]; Concentration 0.1 µg) [%] | also measured
1 | COc1cc(O)ccc1/C=C/C(=O)c1ccc(O)cc1 [Echinatin, echinatin] | 42 | 98 | 99 | 85 | 94 | 99 | 65 | 96 | 96 | 13 | 14 | 6 | 5 to 10 | most effective | – | – | – | – | – | – | Percentage Inhibition of 3T3 Swiss Fibroblast Growth, Example 6.1 ([2]; Concentration 1 µg, listed as echinatin): up to 82%; EC50 ([2]; Mus musculus, normal cell growth of 3T3 cells, exact value not established): 0.1 to 1 µg/mL (≈ 0.37 to 3.7 µM)
2 | O=C(/C=C/c1ccc(O)cc1)c1ccc(O)cc1O [Isoliquiritigenin, isoliquiritigenin] | 4 | 28 | 29 | 32 | 32 | 54 | 50 | 47 | 61 | 20 | 26 | 13 | 20 to 50 | – | 6% | +4% | 20 | 18 | 31 | 39 | level of inhibition of platelet aggregation (platelet aggregation): comparable to aspirin; effect on degranulation in human polymorphonuclear neutrophils [4]: had no effect; Percentage Inhibition of TPA Induced Aggregation (Blood platelets; [5]): 3%; inhibiting blood platelet aggregation, result in words (Blood platelets; comparison among the three chalcones, especially ADP induced aggregation): most active; No. of cells (epidermal proliferation as compared to the control, no treatment) (male Wistar rats; [7]): 103%; Thickness (epidermal thickening as compared to the control, no treatment) (male Wistar rats; [7]): 102%; Percentage inhibition of epidermal proliferation (No. of cells, in brackets) (male Wistar rats; 100µg/5µl): (77) %; Percentage inhibition of epidermal thickening (in brackets) (male Wistar rats; 100µg/5µl): (71) %; No. of cells (epidermal proliferation as compared to the control, no treatment) (male Wistar rats; [8]): 119%; Thickness (epidermal thickening as compared to the control, no treatment) (male Wistar rats; [8]): 116%
3 | COc1c(/C=C/C(=O)c2ccc(O)cc2)ccc(O)c1O [Licochalcone B, licochalcone B] | 31 | 32 | 73 | 41 | 55 | 86 | 22 | 69 | 85 | – | 15 | 13 | 5 to 10 | most effective | +26% | 17% | 16 | 13 | 2 | 37 | effect on degranulation in human polymorphonuclear neutrophils [4]: had an effect; Percentage Inhibition of TPA Induced Aggregation (Blood platelets; [5]): 4%; No. of cells (epidermal proliferation as compared to the control, no treatment) (male Wistar rats; [7]): 103%; Thickness (epidermal thickening as compared to the control, no treatment) (male Wistar rats; [7]): 96%; Percentage inhibition of epidermal proliferation (No. of cells, in brackets) (male Wistar rats; 100µg/5µl): (83) %; Percentage inhibition of epidermal thickening (in brackets) (male Wistar rats; 100µg/5µl): (75) %; No. of cells (epidermal proliferation as compared to the control, no treatment) (male Wistar rats; [8]): 129%; Thickness (epidermal thickening as compared to the control, no treatment) (male Wistar rats; [8]): 135%
4 | CCCCCCCCCCCCCC(=O)O[C@@H]1[C@@H](C)[C@@]2(O)[C@@H](C=C(CO)C[C@]3(O)C(=O)C(C)=C[C@@H]23)[C@@H]2C(C)(C)[C@]12OC(C)=O [TPA, 12-O-tetradecanoylphorbol-13-acetate] | – | – | – | – | – | – | – | – | – | – | – | – | – | – | – | – | – | – | – | – | concentration causing irreversible platelet aggregation (platelets): 0.2 µM
